Counter-ions that a name gives are not always drawn.
What was measured:
[1] = test system: painful syndrome produced in mice by phenylbenzoquinone; test: Analgesic test of Siegmund, Cadmus and Lu (phenylbenzoquinone-induced painful syndrome, stretching); assay type: in vivo, mice (Swiss strain); conditions: oral; for Analgesic activity at 1/10 of LD50: dose 1/10 of LD50, 30 minutes before phenylbenzoquinone; for Analgesic activity at 1/40 of LD50: dose 1/40 of LD50, 30 minutes before phenylbenzoquinone
Method: They were in particular subjected to the analgesic test of Siegmund, Cadmus and Lu (Proc. Soc. Exp. Biol. Med. 95, 729, 1957) according to which a characteristic painful syndrome is produced in mice by injecting phenylbenzoquinone.
The animals used are Swiss strain mice, weighing 20±2 grams.
The animals are distributed in random batches of 10, but are tested individually. Each test comprises at least two batches.
a control batch that receives the solvent and phenylbenzoquinone
a batch treated with the product being investigated.
The investigated products are administered orally, in an amount of 1/10 or 1/40 of the LD50, 30 minutes before the injection of the irritant agent. Each mouse then receives 0.25 ml of a 0.02% phenylbenzoquinone solution intraperitoneally.
The pain syndrome produced by the injection of phenylbenzoquinone causes the animals to stretch their stomach and rear paws, and at the crisis point of the reaction the animal's flanks are very contracted. 5 minutes after the injection of the irritant, the stretching is counted for a period of 10 minutes.
The average number of stretchings is calculated for each batch. The activity of the product under investigations is determined by comparison with the average number of stretchings in the treated animals (N) and the average number of stretchings in the control animals (N'). [formula]
The statistical significance of the result thus obtained is evaluated by Fisher's non-parametric test.

carrageenin oedema = test: Carrageenin oedema test (Winter and Risley's technique), anti-inflammatory activity; assay type: in vivo, rats (Wistar strain, female); conditions: rats, inhibition of oedema compared with control batch
Method: The anti-inflammatory activity was measured by the carrageenin oedema test according to Winter and Risley's technique (Proc. Soc. Exp. Biol. 111, 544, 1962). The test was carried out on batches of 10 Wistar strain female rats weighing 180 g, which receives the products in an amount of 1/10 of the LD50. The anti-inflammatory activity corresponds to the inhibition of the oedema in the treated batch compared with the control batch.

[2] = Oral toxicity in mice (Miller and Tainter's method); assay type: in vivo; conditions: mouse, in vivo, po, read-out: LD50 toxicity orally
Method: (§1) The toxicity of the compounds according to the invention administered orally was also determined in mice by Miller and Tainter's method.

mice = test: as above; assay type: in vivo
Method: as §1

| SMILES | Analgesic activity at 1/10 of LD50 [1] [%] | Analgesic activity at 1/40 of LD50 [1] [%] | Anti-inflammatory activity at 1/10 of LD50 (carrageenin oedema) [%] | LD50 [2] [mg/kg] | LD50 toxicity orally (mice) [mg/kg] |
| --- | --- | --- | --- | --- | --- |
| CCOC(=O)C(C)Oc1cccc(C(=O)c2ccc(Cl)cc2)c1C (stereo not shown) [Ethyl ester of Example 6] | 77 | 73 | 62 | 1500 |  |
| CC(Oc1cccc(C(=O)c2ccccc2)c1)C(=O)O (stereo not shown) [Example 1] | 86 | 84 | 17 | 1000 |  |
| Cc1c(OC(C)C(=O)O)cccc1C(=O)c1ccccc1 (stereo not shown) [Example 2] | 73 |  | 33 | 750 |  |
| CC(Oc1cccc(C(=O)c2ccc(Cl)cc2Cl)c1)C(=O)O (stereo not shown) [Example 3] | 98.5 | 71 | 18 | 1500 |  |
| CC(Oc1cccc(C(=O)c2ccc(Br)cc2)c1)C(=O)O (stereo not shown) [Example 4] | 84 | 58 | 45 | 1000 |  |
| CC(Oc1cccc(C(=O)c2ccc(F)cc2)c1)C(=O)O (stereo not shown) [Example 5] | 89 | 63 | 26 | 1500 |  |
| Cc1c(OC(C)C(=O)O)cccc1C(=O)c1ccc(Cl)cc1 (stereo not shown) [Example 6] | 94 | 83 | 46 | 750 |  |
| Cc1ccc(C(=O)c2ccc(Cl)cc2)cc1OC(C)C(=O)O (stereo not shown) [Example 7] | 81 |  | 21 | 500 |  |
| Cc1ccc(C(=O)c2cccc(OC(C)C(=O)O)c2)cc1 (stereo not shown) [Example 8] | 84 | 86 | 40 | 1500 |  |
| Cc1c(OC(C)C(=O)O)cccc1C(=O)c1ccc(Cl)cc1Cl (stereo not shown) [Example 9] | 64 |  |  | 750 |  |
| Cc1ccc(C(=O)c2cccc(OC(C)C(=O)O)c2C)cc1 (stereo not shown) [Example 10] | 92 |  | 32 | 600 |  |
| Cc1ccc(C(=O)c2cccc(OC(C)C(=O)O)c2)c(C)c1 (stereo not shown) [Example 11] | 97 | 31 | 41 | 2000 |  |
| CC(Oc1cccc(C(=O)c2ccccc2)c1)C(=O)O (stereo not shown) [Lysine salt of Ex. 1] | 97 | 86 | 50 |  | 2000 |
| Cc1c(OC(C)C(=O)O)cccc1C(=O)c1ccc(Cl)cc1 (stereo not shown) [Lysine salt of Ex. 6] | 80 | 89 | 57 |  | 1000 |
| Cc1ccc(C(=O)c2cccc(OC(C)C(=O)O)c2)cc1 (stereo not shown) [Lysine salt of Ex. 8] | 87 | 36 | 30 |  | 2000 |
